Experimental data from US20240238214A1, “NANOCONSTRUCTS AND NANOPARTICLE-MEDIATED DELIVERY OF IMMUNOGENIC CELL DEATH INDUCERS FOR ENHANCING CANCER IMMUNOTHERAPY” (Purdue Research Foundation, priority 2021, published 2024).
Converted amounts (≈) assume the structure as drawn.

Experiments:
apyrase = biological target: T1, apyrase (Solanum tuberosum, UniProt P80595); assay: ATP level after incubation with apyrase (ATP bioluminescence assay); format: biochemical; details: 10 μM ATP, 5 units/mL apyrase, 37° C., 10 minutes
T1 construct: purchased Thermo Fisher Scientific Inc. (Waltham, MA)
T1 sequence (P80595 1-454): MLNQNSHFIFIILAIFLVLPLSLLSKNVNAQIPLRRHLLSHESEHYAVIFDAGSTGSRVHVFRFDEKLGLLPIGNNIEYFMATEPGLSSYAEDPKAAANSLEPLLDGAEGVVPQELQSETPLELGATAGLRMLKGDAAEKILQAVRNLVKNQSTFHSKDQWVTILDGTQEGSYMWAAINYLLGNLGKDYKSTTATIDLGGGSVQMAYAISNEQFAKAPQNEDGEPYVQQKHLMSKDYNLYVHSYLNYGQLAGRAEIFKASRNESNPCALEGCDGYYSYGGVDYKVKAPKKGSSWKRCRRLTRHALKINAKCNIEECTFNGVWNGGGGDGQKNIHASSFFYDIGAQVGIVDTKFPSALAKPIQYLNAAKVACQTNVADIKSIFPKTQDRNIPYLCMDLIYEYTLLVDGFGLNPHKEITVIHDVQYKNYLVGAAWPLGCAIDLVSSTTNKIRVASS
Description: Further, to confirm the activity of apyrase against ATP, 10 μM ATP was incubated with or without 5 units/mL apyrase in 37° C. for 10 minutes. The ATP level after incubation was measured by ATP bioluminescence assay.

JAWSII cells = assay: Stability against apyrase (DC migration assay in Transwell); format: cell-based, murine; details: 10 μM ATP, 0.5 units of apyrase, 4 hours
Description: To screen the effect of degrading enzyme to the nanoparticle-bound ATP, apyrase (a CD39 equivalent) was co-incubated with ATP or NP-pD-ATP, and a DC migration assay was performed in a Transwell (FIG. 9A). For the migration assay, 100 μL of 2×10^5 JAWSII cells, suspended in media, were added to the top of the Transwell (8 μm pore size). 600 μL of media containing 10 μM ATP conjugated nanoparticle was added to the bottom well (with or without 0.5 units of apyrase). Cells were incubated in 37° C. for 4 hours. Bottom media was collected to analyze the number of cells migrated by flow cytometry.

JAWSII DCs = assay: Cytotoxicity by MTT assay, JAWSII; format: cell-based, murine; details: 96 hours
Description: (§1) As the nanoparticles hereof can be used to deliver ICD inducers to create tumor antigens, which need to be taken up by APCs, in certain embodiments, it is important for the formulations to kill tumor cells, while saving the host immune cells.
For JAWSII cells, JAWSII cells were seeded in 96 wells with 20,000 cells/well.

[1] = test system: CT26 cells phagocytosed by JAWSII DCs; assay: Phagocytosis assay; format: cell-based, murine; details: CT26 treated with IC50 of drug, co-cultured with JAWSII for 24 hours
Description: A phagocytosis assay was performed to observe whether cells killed by ICD inducers will be taken up by dendritic cells (DCs).
CT26 cells were stained with Cell Tracker Green for 30 mins (0.5 μM) and washed once with cold serum free DMEM. CT26 cells were incubated overnight in 10% FBS media to allow any unbound dye to be inactivated. CT26 cells were collected and seeded (150,000 cells/well) in 6 wells plate for 24 hours. JAWSII cells were collected and stained with Cell Tracker Deep Red for 30 mins (0.5 μM) and washed once with cold serum free RPMI. JAWSII cells were incubated overnight in 10% FBS media to allow any unbound dye to be inactivated. […] After the treatment, CT26 containing 6 wells plate was centrifuged at 500 g×8 mins. Supernatant was aspirated to remove any remaining drugs. JAWSII cells (150,000 cells/well) were added to CT26, and cells were co-cultured for 24 hours. The co-cultured cells were collected, resuspended in the staining buffer, and analyzed by the Accuri C6 flow cytometer.

[2] = test system: CT26 murine carcinoma, B16F10 murine carcinoma and 4T1 breast mammary carcinoma cells; assay: CRT exposure on cell surface (flow cytometry); format: cell-based; details: treated at IC50 for 6 hours; compared to control groups
Description: (§2) The release of DAMPs from the treated cells were then analyzed (e.g., CRT exposure was measured by flow cytometry, HMGB1 was measured by quantifying western blot, and ATP was measured by ATP determination kit).
After 6 hours, cells were washed with PBS and fixed with 4% […] (PFA). Fixed cells were incubated with FITC-labeled CRT antibodies. Cells were analyzed by the Accuri C6 flow cytometer to determine the population of CRT-positive cells.

CT26 cells = assay: In vivo tumor vaccination study; design: species or system Balb/c mice; details: cells treated at 100× IC50 for 24 hours; three million dead cells; 500,000 live CT26 cells after 9 days
Description: The vaccination study, a standard test to verify bona fide ICD, was performed with PTX and CFZ (e.g., the candidate drugs) in vivo. The vaccination study involved generating tumor antigens by exposing tumor cells to lethal dose of ICD inducers. Potential ICD inducer-treated cells (i.e., the primary dose) were injected subcutaneously to immunocompetent mice. One week later, live tumor cells were injected on the contralateral side (i.e., the rechallenge), and the growth of the tumor was monitored to determine if the drug-killed tumor cells (i.e., the primary dose) can serve as a vaccine and prevent the growth of a live cell challenge.
Dead cells were collected and washed with PBS twice to remove excess amount of the drug.
Three million dead cells were injected into the right flanks of 6-week-old immunocompetent female Balb/c mice (i.e., the primary dose), the syngeneic host of CT26 cells. After 9 days, 500,000 live CT26 cells (live tumor cells) were inoculated subcutaneously in the contralateral side of the mice (i.e., the rechallenge) and tumor growth was monitored to determine the development of anti-tumor immunity.

[3] = test system: CT26 murine carcinoma, B16F10 murine carcinoma and 4T1 breast mammary carcinoma cells; assay: HMGB1 release into medium (western blot); format: cell-based; details: treated at IC50 for 24 hours; supernatant
Description: After 24 hours, supernatants were collected, and a western blot immunoassay was performed to determine the amount of HMGB1 present.

[4] = test system: CT26 murine carcinoma, B16F10 murine carcinoma and 4T1 breast mammary carcinoma cells; assay: ATP secretion into medium (ATP determination kit); format: cell-based; details: treated at IC50 for 24 hours; supernatant
Description: as §2
After 24 hours, supernatants were collected, and the amount of ATP in the supernatant was measured with ATP determination kit.

CT26 murine carcinoma = assay: Cytotoxicity by MTT assay, CT26; format: cell-based; details: Mus musculus; CT26 cells
Description: as §1
Cytotoxicity was assessed by the MTT assay. CT26 cells were seeded in 96 wells with 3,000 cells/well and cultured until 30% confluency. Cells were treated with varying concentrations of Drug, Drug@NP, Drug@NP-pD, Drug@NP-pD-ATP for 24 hours. After 24 hours, media was replaced, the cells were incubated for an additional 24 hours, and an MTT assay was performed to measure the number of viable cells present (see FIGS. 13A and 14A).

[5] = cited from earlier work
physchem = details: aqueous with cosolvent or surfactant or cyclodextrin

SMILES | ATP level after incubation with apyrase (apyrase) | chemotactic ability (DC migration) in the presence of apyrase (JAWSII cells) | concentration with sudden decrease of DC viability (JAWSII DCs) [µM] | uptake of CT26 to the dendritic cells [1] | CRT exposure [2] | tumor growth after live CT26 rechallenge in mice vaccinated with drug-treated dead cells (CT26 cells) | HMGB1 release [3] | ATP secretion [4] | IC50 (CT26 murine carcinoma) [nM] | water solubility [5] [µg/mL] | solubility (physchem) [µg/mL]
Nc1ncnc2c1ncn2[C@@H]1O[C@H](COP(=O)(O)OP(=O)(O)OP(=O)(O)O)[C@@H](O)[C@H]1O [free ATP, adenosine triphosphate] | not detectable | completely abolished the chemotactic ability of free ATP | – | – | – | – | – | – | – | – | –
CC(=O)O[C@H]1C(=O)[C@@]2(C)[C@H]([C@H](OC(=O)c3ccccc3)[C@]3(O)C[C@H](OC(=O)[C@H](O)[C@@H](NC(=O)c4ccccc4)c4ccccc4)C(C)=C1C3(C)C)[C@]1(OC(C)=O)CO[C@@H]1C[C@@H]2O [PTX, paclitaxel] | – | – | ≥ 30 | significantly increased the uptake of CT26 to the dendritic cells | induced the exposure of CRT | tumors did not grow | induced the release of HMGB1 | caused the secretion of ATP | 250 | – | –
O=C1[O][Pt]2([NH][C@@H]3CCCC[C@H]3[NH]2)[O]C1=O [OXA, oxaliplatin] | – | – | – | – | – | tumors did not grow | induced the release of HMGB1 | – | – | – | –
CC(C)C[C@H](NC(=O)[C@H](CCc1ccccc1)NC(=O)CN1CCOCC1)C(=O)N[C@@H](Cc1ccccc1)C(=O)N[C@@H](CC(C)C)C(=O)[C@@]1(C)CO1 [CFZ, carfilzomib] | – | – | – | significantly increased the uptake of CT26 to the dendritic cells | induced the exposure of CRT | tumors did not grow | induced the release of HMGB1 | caused the secretion of ATP | 15 | 0.7 to 3.6 | 9 (≈ 12.5 µM)
Nc1ccn([C@@H]2O[C@H](CO)[C@@H](O)C2(F)F)c(=O)n1 [GEM, gemcitabine] | – | – | – | – | failed to induce CRT exposure | Tumors grew in all animals | failed to induce HMGB1 secretion | – | – | – | –
